The record followed here is ChEMBL document CHEMBL2390902, “Discovery of 1-(1,3,5-triazin-2-yl)piperidine-4-carboxamides as inhibitors of soluble epoxide hydrolase” (Bioorg Med Chem Lett, 2013).

Series [1] has as its target Adenosine receptor A3 (Homo sapiens) (UniProt P0DMS8). In words: Inhibition of human adenosine A3 receptor at 1 uM relative to control.
For series [2], the target named is Epoxide hydrolase 1 (Homo sapiens, UniProt P07099).
For series [3], the target named is Melanocortin receptor 4 (Homo sapiens) (UniProt P32245). In words: Inhibition of human MC4 receptor at 1 uM relative to control.
Chain of Melanocortin receptor 4 (Homo sapiens) (P32245 whole entry): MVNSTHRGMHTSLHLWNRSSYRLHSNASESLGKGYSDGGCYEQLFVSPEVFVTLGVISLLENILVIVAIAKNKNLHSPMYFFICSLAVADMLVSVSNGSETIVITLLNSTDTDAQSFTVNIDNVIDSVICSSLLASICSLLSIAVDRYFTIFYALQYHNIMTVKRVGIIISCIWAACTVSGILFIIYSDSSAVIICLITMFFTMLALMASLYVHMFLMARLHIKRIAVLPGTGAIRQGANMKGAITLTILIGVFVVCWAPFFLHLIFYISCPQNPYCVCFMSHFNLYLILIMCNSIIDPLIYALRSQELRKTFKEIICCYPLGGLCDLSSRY
For series [4], the species on record is Homo sapiens. In words: Inhibition of human sigma receptor at 1 uM relative to control.
The species named for series [5] is Homo sapiens. The series can be described thus: Inhibition of human P2X receptor at 1 uM relative to control.
The target in series [6] is Galanin receptor type 2 (Homo sapiens) (UniProt O43603). In words: Inhibition of human GAL2 receptor at 1 uM relative to control.
Chain of Galanin receptor type 2 (Homo sapiens) (O43603 whole entry): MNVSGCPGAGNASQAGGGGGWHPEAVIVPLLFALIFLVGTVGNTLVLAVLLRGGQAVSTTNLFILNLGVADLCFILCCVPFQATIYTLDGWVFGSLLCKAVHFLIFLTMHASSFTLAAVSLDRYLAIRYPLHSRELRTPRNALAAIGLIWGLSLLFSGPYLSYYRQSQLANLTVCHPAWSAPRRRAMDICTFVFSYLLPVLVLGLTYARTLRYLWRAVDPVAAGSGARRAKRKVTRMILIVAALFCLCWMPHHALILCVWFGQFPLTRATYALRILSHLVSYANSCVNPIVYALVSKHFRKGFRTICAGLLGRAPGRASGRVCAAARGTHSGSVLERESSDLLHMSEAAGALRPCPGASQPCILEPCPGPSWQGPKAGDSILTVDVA
Series [7] in a line: Cmax in rat at 0.2 mg/kg, po. The class given is ADME, organism-based. Also on record: dose 0.2 mg/kg, route oral. The note with it: in vivo.
Series [8] deals with T1, Bifunctional epoxide hydrolase 2 (Homo sapiens, UniProt P34913).
T1 sequence (P34913 whole entry): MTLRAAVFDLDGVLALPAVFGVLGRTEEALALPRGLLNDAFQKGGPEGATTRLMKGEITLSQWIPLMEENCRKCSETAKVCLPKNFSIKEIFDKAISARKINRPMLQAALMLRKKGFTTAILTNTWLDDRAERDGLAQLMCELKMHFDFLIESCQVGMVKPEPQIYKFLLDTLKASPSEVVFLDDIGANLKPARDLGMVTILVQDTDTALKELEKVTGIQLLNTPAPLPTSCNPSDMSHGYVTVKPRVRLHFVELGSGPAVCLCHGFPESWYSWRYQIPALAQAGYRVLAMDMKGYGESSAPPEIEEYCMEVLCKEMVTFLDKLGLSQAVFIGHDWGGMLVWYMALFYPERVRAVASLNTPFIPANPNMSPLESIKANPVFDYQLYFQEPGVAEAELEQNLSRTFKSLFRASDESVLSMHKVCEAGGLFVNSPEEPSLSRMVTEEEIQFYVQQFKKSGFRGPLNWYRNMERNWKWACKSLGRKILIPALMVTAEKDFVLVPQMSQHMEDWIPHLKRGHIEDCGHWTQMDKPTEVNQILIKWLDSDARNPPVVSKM
Description: Inhibition of human soluble epoxide hydrolase using PHOME as substrate assessed as formation of 6-methoxy-2-naphthaldehyde incubated for 10 mins prior to substrate addition measured with in 30 mins by fluorescence assay

The target of series [9] is Bifunctional epoxide hydrolase 2 (Rattus norvegicus, UniProt P80299).
Chain of Bifunctional epoxide hydrolase 2 (Rattus norvegicus, UniProt P80299) (P80299 whole entry): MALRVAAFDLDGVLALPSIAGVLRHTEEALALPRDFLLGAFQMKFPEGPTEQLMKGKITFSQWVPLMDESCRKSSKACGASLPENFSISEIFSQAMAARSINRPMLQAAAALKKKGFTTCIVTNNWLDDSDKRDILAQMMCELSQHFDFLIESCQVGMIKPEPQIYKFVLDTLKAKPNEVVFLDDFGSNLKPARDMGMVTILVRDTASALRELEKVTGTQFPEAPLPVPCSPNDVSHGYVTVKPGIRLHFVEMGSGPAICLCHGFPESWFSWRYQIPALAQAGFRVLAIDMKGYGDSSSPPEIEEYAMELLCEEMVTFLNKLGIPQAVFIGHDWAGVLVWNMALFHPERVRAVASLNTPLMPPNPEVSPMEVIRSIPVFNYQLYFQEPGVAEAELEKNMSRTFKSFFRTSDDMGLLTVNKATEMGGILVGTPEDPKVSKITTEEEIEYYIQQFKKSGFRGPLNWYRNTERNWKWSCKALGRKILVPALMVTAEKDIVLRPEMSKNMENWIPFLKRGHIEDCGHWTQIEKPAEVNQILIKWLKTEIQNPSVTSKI
In series [10] the target is 5-hydroxytryptamine receptor 3A (Homo sapiens) (UniProt P46098). In words: Inhibition of human 5-HT3 receptor at 1 uM relative to control.
Chain of 5-hydroxytryptamine receptor 3A (Homo sapiens) (P46098 whole entry): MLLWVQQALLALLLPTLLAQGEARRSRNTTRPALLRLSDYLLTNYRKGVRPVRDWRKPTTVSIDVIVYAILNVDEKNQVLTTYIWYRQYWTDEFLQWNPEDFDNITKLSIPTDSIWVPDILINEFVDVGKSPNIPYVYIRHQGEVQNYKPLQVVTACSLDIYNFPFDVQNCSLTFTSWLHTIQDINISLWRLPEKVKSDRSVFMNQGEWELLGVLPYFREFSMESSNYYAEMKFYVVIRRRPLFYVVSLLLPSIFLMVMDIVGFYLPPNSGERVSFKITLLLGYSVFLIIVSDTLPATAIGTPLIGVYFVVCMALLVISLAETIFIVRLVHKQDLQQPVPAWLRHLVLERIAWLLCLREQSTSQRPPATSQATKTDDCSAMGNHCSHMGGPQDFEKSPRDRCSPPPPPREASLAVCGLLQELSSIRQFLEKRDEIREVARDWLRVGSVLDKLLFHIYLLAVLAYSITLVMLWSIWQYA
Series [11] is filed under the species Homo sapiens. In words: Inhibition of human delta2 opioid receptor at 1 uM relative to control.
The target in series [12] is Beta-1 adrenergic receptor (Homo sapiens) (UniProt P08588). In words: Inhibition of human beta1 receptor at 1 uM relative to control.
Chain of Beta-1 adrenergic receptor (Homo sapiens) (P08588 whole entry, looked up): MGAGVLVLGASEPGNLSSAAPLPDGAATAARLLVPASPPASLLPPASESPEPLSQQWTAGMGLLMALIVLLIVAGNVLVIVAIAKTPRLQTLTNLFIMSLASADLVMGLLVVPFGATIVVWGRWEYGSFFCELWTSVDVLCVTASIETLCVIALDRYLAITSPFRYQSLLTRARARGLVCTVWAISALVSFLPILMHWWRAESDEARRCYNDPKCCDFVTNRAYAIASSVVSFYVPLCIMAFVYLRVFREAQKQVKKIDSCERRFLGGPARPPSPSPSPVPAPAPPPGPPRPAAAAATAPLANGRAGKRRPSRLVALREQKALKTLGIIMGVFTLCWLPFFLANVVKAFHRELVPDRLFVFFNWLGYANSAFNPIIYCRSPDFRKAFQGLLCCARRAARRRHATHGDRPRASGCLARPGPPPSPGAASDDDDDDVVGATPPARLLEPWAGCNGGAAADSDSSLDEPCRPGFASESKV
For series [13], the target named is Type-1 angiotensin II receptor (Homo sapiens) (UniProt P30556). In words: Inhibition of human AT1 receptor at 1 uM relative to control.
Chain of Type-1 angiotensin II receptor (Homo sapiens) (P30556 whole entry): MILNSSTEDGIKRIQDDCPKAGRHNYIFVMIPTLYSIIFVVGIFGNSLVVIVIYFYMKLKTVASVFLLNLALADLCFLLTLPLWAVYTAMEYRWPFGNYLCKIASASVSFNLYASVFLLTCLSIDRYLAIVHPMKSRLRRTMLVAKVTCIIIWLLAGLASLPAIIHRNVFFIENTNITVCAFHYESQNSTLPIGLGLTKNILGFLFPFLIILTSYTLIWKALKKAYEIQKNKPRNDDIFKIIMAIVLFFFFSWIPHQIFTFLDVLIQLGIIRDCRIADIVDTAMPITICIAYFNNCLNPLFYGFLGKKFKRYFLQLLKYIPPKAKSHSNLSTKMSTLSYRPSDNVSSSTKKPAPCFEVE
For series [14], the target named is Neuromedin-K receptor (Homo sapiens) (UniProt P29371). In words: Inhibition of human NK3 receptor at 1 uM relative to control.
Chain of Neuromedin-K receptor (Homo sapiens) (P29371 whole entry): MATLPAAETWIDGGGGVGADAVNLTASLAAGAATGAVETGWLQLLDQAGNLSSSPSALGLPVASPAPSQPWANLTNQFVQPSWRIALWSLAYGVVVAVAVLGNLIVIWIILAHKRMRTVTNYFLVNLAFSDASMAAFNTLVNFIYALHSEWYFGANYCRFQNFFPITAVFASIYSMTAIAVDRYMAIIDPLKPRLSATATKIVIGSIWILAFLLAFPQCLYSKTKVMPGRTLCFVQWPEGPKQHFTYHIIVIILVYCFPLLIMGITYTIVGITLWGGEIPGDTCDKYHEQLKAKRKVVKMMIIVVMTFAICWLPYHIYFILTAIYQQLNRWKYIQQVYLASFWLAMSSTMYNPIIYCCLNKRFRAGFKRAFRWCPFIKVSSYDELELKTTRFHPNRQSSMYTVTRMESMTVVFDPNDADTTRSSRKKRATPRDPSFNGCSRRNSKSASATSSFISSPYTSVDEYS
A short description of series [15]: Plasma clearance in rat at 2 mg/kg, iv. The series is classed as ADME, organism-based. Also on record: dose 2 mg/kg, route intravenous.
For series [16], the target named is T1, Bifunctional epoxide hydrolase 2. The source holds these as a separate data set.
Description: Inhibition of human soluble epoxide hydrolase overexpressed in HEK293F cells using EET as substrate assessed as formation of DHET incubated for 30 mins prior to substrate addition measured after 60 mins by ELISA
In series [17] the target is 5-hydroxytryptamine receptor 5A (Homo sapiens) (UniProt P47898). The series can be described thus: Inhibition of human 5-HT5A receptor at 1 uM relative to control.
Chain of 5-hydroxytryptamine receptor 5A (Homo sapiens) (P47898 whole entry): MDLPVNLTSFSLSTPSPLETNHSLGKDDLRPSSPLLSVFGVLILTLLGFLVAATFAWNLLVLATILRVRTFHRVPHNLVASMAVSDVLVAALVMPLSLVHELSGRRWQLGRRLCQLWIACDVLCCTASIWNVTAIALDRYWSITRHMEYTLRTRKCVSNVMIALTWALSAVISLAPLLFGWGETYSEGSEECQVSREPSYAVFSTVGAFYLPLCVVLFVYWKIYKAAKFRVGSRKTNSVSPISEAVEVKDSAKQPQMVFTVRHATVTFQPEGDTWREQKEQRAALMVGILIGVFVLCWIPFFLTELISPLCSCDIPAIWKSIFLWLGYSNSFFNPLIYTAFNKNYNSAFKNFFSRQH
Series [18] concerns the target Neurotensin receptor type 1 (Homo sapiens) (UniProt P30989). In words: Inhibition of human NTS1 receptor at 1 uM relative to control.
The target in series [19] is 5-hydroxytryptamine receptor 1A (Homo sapiens) (UniProt P08908). In words: Inhibition of human 5-HT1A receptor at 1 uM relative to control.
Series [20] is described as follows: Fraction unbound in rat plasma. The series is classed as ADME, cell-free.
The target of series [21] is D(1A) dopamine receptor (Homo sapiens) (UniProt P21728). The series can be described thus: Inhibition of human dopamine D1 receptor at 1 uM relative to control.

pIC50: −log10 of the molar value.

Chain of Adenosine receptor A3 (Homo sapiens) (P0DMS8 whole entry): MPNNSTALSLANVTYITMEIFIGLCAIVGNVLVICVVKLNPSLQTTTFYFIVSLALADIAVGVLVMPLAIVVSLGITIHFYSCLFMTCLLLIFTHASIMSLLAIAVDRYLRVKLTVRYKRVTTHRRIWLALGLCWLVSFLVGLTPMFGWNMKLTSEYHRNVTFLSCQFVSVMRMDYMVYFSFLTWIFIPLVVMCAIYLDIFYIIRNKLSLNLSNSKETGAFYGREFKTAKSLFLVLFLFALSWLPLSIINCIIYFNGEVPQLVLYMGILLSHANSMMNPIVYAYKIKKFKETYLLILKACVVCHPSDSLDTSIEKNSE
Chain of Neurotensin receptor type 1 (Homo sapiens) (P30989 whole entry): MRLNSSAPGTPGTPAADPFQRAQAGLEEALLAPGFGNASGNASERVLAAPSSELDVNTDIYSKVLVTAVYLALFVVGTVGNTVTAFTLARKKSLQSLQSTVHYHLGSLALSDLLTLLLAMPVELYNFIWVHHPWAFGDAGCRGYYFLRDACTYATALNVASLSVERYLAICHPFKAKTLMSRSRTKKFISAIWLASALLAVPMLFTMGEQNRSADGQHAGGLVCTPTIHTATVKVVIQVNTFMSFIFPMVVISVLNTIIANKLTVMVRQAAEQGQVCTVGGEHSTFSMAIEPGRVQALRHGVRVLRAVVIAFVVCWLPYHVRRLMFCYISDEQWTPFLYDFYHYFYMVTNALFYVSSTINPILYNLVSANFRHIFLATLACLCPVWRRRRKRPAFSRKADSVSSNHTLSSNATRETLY
Chain of Epoxide hydrolase 1 (P07099 whole entry): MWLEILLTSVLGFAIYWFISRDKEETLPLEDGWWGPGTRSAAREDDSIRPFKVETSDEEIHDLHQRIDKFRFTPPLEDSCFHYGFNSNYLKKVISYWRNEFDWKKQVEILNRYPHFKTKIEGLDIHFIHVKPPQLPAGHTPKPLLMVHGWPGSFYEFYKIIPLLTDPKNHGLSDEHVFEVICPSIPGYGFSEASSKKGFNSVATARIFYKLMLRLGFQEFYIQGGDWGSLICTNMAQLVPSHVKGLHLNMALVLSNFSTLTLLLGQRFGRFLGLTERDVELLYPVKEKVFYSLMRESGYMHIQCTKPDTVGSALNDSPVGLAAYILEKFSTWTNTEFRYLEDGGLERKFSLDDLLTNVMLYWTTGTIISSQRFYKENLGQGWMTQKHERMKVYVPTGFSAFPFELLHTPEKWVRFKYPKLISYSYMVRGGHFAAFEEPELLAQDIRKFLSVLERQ

Turning to `CNc1nc(C)nc(N2CCC(C(=O)NCc3ccc(Br)cc3OC(F)(F)F)CC2)n1`, the inhibition in [1], in [3], in series [4], in series [5], in series [6] and in [10] was less than 50% each time. The inhibition in [11], in [12], in series [13], in series [14], in series [17] and in series [18] was less than 50% in each case. In addition, the inhibition in [19] and in [21] was less than 50% in each case. The negative logarithm of the IC50 (pIC50) in [2] was less than 4.30; in series [8], 9.30; in series [9] it was 8.70; in series [16], 8.52. For the same compound, the Cmax in series [7] amounted to 16 nM. The clearance in [15] came out at 12 mL/min/kg. Further, the fraction unbound in [20] was determined as 0.015.

As usually defined, the inhibition is the drop in the measured response relative to a control, in per cent. High values mean a response far below the control, low ones a response near the control. A word on the pIC50: it is the IC50 on a negative log10 scale, so that one unit is a factor of ten. As a reminder, the Cmax is the highest concentration seen after dosing. The clearance is the rate of elimination divided by the concentration. Low values mean a low capacity for elimination, high ones a high capacity for elimination. Broadly, the fraction unbound is free concentration divided by total concentration. A higher fraction unbound goes with much free substance.
